How the values were obtained:
HepG2 [1] = experiment: Induction of dyslipidemia in human HepG2 cells assessed as downregulation of ApoC3 gene expression at 10 uM by qPCR analysis; assay type: toxicity, cell-based; settings: hepg2, 10 µM
HepG2 [2] = experiment: Induction of dyslipidemia in human HepG2 cells assessed as downregulation of ApoA1 gene expression at 10 uM by qPCR analysis; assay type: toxicity, cell-based; settings: hepg2, 10 µM

Which results are given for `CC[C@H]1[C@@H](O)[C@@H]2[C@H](CC[C@]3(C)[C@@H]([C@H](C)CCC(=O)O)CC[C@@H]23)[C@@]2(C)CC[C@@H](O)C[C@@H]12` [OBETICHOLIC ACID]?
Activity (HepG2 [1]): Toxic; Activity (HepG2 [2]): Toxic
